Measurements: patent US4772607A, “Dialkenyl derivatives of xanthine, pharmaceutical compositions and methods of use therefor” (Warner-Lambert Company, priority 1986, dated 1988)
Several values for one entry are separate records, joined by “and”; a condition that tells them apart may be missing. Equal entries are not always repeated. Structures can show the parent of a compound that is named as a salt. One block for each compound: values may come before it.

How the values were obtained:
[1] = system: A1 and A2 adenosine receptor; conditions: disclosed by Hamilton et al, J. Med. Chem. (1985) 28: 1071; cited from earlier work
[2] = system: locomotor suppressant effects of A1 selective adenosine agonist CPA; assay: CNS activity: antagonism of locomotor suppressant effect of A1 agonist CPA in mice; type: in vivo, mouse (male Swiss-Webster)
Procedure: (§1) The procedure employs naive animals obviating the need for extensive training and precluding possible cumulative drug effects.
(§2) Suspensions are ultrasonicated for 3 minutes.

[3] = system: locomotor suppressant effects of A2 selective agonist CV-1808; assay: CNS activity: antagonism of locomotor suppressant effect of A2 agonist CV-1808 in mice; type: in vivo, mouse (male Swiss-Webster); conditions: for Locomotor activity, % suppression (B, A2 agonist alone): CV-1808 8 mg/kg IP alone
Procedure: as §1, §2

A1 adenosine receptor = biological target: T1, A1 adenosine receptor (Rattus norvegicus, UniProt P25099); assay: Adenosine Receptor Binding--A1 Receptor Affinity (RBA1), [3H]-CHA, rat whole brain membranes; design: species or system rat (male Long-Evans); conditions: [3H]-CHA 1.0 nM, 25° C., one hour, pH 7.7; read-out: RBA-1 IC50 (adenosine A1 receptor affinity)
T1 construct: Whole brain minus cerebellum and brainstem from male Long-Evans rats (150-200 g) is homogenized; from tissue; host or cells: rat whole brain minus cerebellum and brainstem, membranes
T1 sequence (P25099 1-326): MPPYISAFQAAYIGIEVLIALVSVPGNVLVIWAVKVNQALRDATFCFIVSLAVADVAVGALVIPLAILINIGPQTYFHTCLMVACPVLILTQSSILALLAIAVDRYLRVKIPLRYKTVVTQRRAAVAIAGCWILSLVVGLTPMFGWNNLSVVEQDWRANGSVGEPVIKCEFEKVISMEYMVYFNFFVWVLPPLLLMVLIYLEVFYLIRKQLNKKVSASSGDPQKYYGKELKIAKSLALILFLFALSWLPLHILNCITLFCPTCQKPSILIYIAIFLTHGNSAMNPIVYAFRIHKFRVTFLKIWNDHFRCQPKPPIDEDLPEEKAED
Procedure: Adenosine Receptor Binding--A1 Receptor Affinity (RBA1)
Whole brain minus cerebellum and brainstem from male Long-Evans rats (150-200 g) is homogenized in 30 volumes of ice-cold 0.05M Tris-HCl buffer pH 7.7 using a Brinkman Polytron PT-10, (setting number 6 for 20 seconds) and centrifuged for ten minutes at 20,000×g (Sorvall RC-2), 4° C. The supernatant is discarded, and the pellet is resuspended and centrifuged as before. The pellet is resuspended in 20 ml Tris-HCl buffer containing two International Units/ml of adenosine deaminase (Sigma type III from calf intestinal mucosa), incubated at 37° C. for 30 minutes, then subsequently at 0° C. for ten minutes. The homogenate is again centrifuged, and the final pellet is resuspended in ice-cold 0.05M Tris-HCl buffer pH 7.7 to a concentration of 20 mg/ml original wet tissue weight and used immediately.
Tissue homogenate (10 mg/ml) is incubated in 0.05M Tris-HCl buffer pH 7.7 containing 1.0 nM [^3 H]-N6-cyclohexyladenosine ([^3 H]-CHA) with or without test agents in triplicate for one hour at 25° C. Incubation volume was 2 ml. Unbound [^3 H]-CHA is separated by rapid filtration under reduced pressure through Whatman glass fiber (GF/B) filters. The filters are rinsed three times with 5 ml of ice-cold 0.05M Tris-HCl buffer pH 7.7. The radio-labeled ligand retained on the filter is measured by liquid scintillation spectrophotometry after shaking the filters for one hour or longer on a mechanical shaker in 10 ml of Beckman Ready-Solv HP scintillation cocktail.
The Scatchard plot is calculated by linear regression of the line obtained by plotting the amount of radioligand bound (pmoles/gram of tissue) versus [formula] Since the amount of radioligand bound is a small fraction of the total amount added, free radioligand is defined as the concentration of (nM) of radioligand added to the incubation mixture. The Hill coefficient is calculated by linear regression of the line obtained by plotting the log of the bound radioligand vs the log of the [formula] The maximal number of binding sites (Bmax) is calculated from the Scatchard plot.

A2 adenosine receptor = biological target: T2, A2 adenosine receptor (Rattus norvegicus, UniProt P30543); assay: Adenosine Receptor Binding--A2 Receptor Affinity (RBA2), [3H]NECA, rat striatal membranes; design: species or system rat (Sprague-Dawley); conditions: [3H]NECA 4 nM, 50 nM N6-cyclopentyladenosine, 25° C., 60 minutes; read-out: RBA-2 IC50 (adenosine A2 receptor affinity)
T2 construct: Brains are thawed and then kept on ice while the striata are dissected out; tissue Pel-Freez (Rogers, Ark.); host or cells: rat striatum, membranes
Procedure: Adenosine Receptor Binding--A2 Receptor Affinity (RBA2)
The membrane suspension (5 mg/0.79 ml) contained sufficient MgCl2 and adenosine deaminase to give 10 mM and 0.1 units/ml, respectively, final concentration in the incubation.
[formula] where Y is cpm bound
T is cpm total binding without drug
S is cpm specific binding without drug
D is the concentration of drug and
K is the IC50 of the drug

[4] = CNS activity: locomotor activity of antagonist alone in mice (reference control); type: in vivo, mouse (male Swiss-Webster); conditions: antagonist 10 mg/kg IP alone; CV-1808 experiment

T2 sequence (P30543 whole entry): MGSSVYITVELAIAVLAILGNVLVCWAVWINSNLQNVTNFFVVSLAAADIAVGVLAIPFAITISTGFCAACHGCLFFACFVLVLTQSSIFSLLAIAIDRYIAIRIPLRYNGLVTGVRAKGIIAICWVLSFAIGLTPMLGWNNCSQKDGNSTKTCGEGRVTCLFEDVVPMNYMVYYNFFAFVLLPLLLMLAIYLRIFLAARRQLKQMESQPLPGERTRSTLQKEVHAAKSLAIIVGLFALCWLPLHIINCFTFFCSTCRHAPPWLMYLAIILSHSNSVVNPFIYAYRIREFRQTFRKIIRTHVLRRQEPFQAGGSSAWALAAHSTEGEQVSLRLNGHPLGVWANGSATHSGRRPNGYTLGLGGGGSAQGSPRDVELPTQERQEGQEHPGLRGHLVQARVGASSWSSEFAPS

Compound: 8-(4-sulfonylphenyl)-3,9-dihydro-1,3-bis(2-propenyl)-1H-purine-2,6-dione
A1 and A2 adenosine receptor binding activity (in words) [1]: having A1 and A2 adenosine receptor binding activity

Compound: C=CCn1c(=O)c2nc(C)[nH]c2n(CC=C)c1=O [8-methyl-3,9-dihydro-1,3-bis(2-propenyl)-1H-purine-2,6-dione]
A1 and A2 adenosine receptor binding activity (in words) [1]: having A1 and A2 adenosine receptor binding activity

Compound: OC[C@H]1O[C@@H](n2cnc3c(NC4CCCC4)ncnc32)[C@H](O)[C@@H]1O [CPA, N^6 -cyclopentyladenosine, reference compound]
Locomotor activity, % suppression (B, A1 agonist alone) ([2]; CPA 2 mg/kg IP alone): 90% and 94%

Compound: Nc1nc(Nc2ccccc2)nc2c1ncn2[C@@H]1O[C@H](CO)[C@@H](O)[C@H]1O [CV-1808, 2-anilinoadenosine, reference compound]
Locomotor activity, % suppression (B, A2 agonist alone) ([3]; 8 mg/kg): 83%
Locomotor activity, % suppression (B, A2 agonist alone) ([3]; listed as CV-1810): 62%

IC50 (A1 adenosine receptor): 130 nM
Compound: C=CCn1c(=O)c2nc(-c3ccc(Cl)cc3N)[nH]c2n(CC=C)c1=O [Example 1, 8-(2-Amino-4-chlorophenyl)-3,9-dihydro-1,3-bis(2-propenyl)-1H-purine-2,6-dione]
A1 and A2 adenosine receptor binding activity (in words) [1]: having A1 and A2 adenosine receptor binding activity

IC50 (A1 adenosine receptor): 6960 nM
Compound: C=CCn1c(=O)c2nc(-c3ccc(S(=O)(=O)O)cc3)[nH]c2n(CC=C)c1=O [Example 2, 4-(2,3,6,7-Tetrahydro-2,6-dioxo-1,3-di-2-propenyl-1H-purine-8-yl)benzenesulfonic acid]

Compound: C=CCn1c(=O)c2[nH]c(-c3ccc(S(=O)(=O)NCCCN(C)C)cc3)nc2n(CC=C)c1=O [Example 3, N-[3-(dimethylamino)propyl]-4-(2,3,6,7-tetrahydro-2,6-dioxo-1,3-di-2-propenyl-1H-purine-8-yl)benzenesulfonamide monohydrochloride]
IC50 (A1 adenosine receptor): 260 nM

IC50 (A1 adenosine receptor): 9 nM
IC50 (A2 adenosine receptor): 3500 nM
Compound: C=CCn1c(=O)c2[nH]c(C3CCCC3)nc2n(CC=C)c1=O [Example 4, 8-Cyclopentyl-3,7-dihydro-1,3-bis(2-propenyl)-1H-purine-2,6-dione]
Locomotor activity, % suppression (C, agonist + antagonist) ([2]; antagonist 10 mg/kg + CPA 2 mg/kg, IP): 16%
% Reversal (B - C) ÷ B × 100, against CPA (A1) ([2]; antagonist 10 mg/kg, CPA 2 mg/kg, IP): 82%
Reversal Rating A1 (against CPA) ([2]; paired t-test of B and C): A (if the values are significantly different (p<0.05) from each other then the dose effect is given a reversal rating of "A")
% Reversal (B - C) ÷ B × 100, against CV-1808 (A2) ([3]; antagonist 10 mg/kg, CV-1808 8 mg/kg, IP): 8%
Locomotor activity, % suppression (C, agonist + antagonist) ([3]; antagonist + CV-1808 8 mg/kg, IP, antagonist 10 mg/kg): 57%
Reversal Rating A2 (against CV-1808) ([3]; paired t-test of B and C): N (if the data are insignificant (p>0.05) then the dose effect is given a rating of "N")
Locomotor activity, % suppression (A, antagonist alone) [4]: 18%

Compound: C=CCn1c(=O)c2[nH]c(-c3ccc(S(=O)(=O)NCCCN(C)C)cc3)nc2n(CC=C)c1=O [N-[3-(dimethylamino)propyl]-4-(2,3,6,7-tetrahydro-2,6-dioxo-1,3-2-propenyl-1H-purine-8-yl)benzensulfonamide]
A1 and A2 adenosine receptor binding activity (in words) [1]: having A1 and A2 adenosine receptor binding activity
